Test results: patent US20140206624A1, “TREATMENT OF LEUKEMIA” (THE BRIGHAM AND WOMEN'S HOSPITAL, INC., priority 2011, published 2014)

Key:
Assay type in all cases: in vivo, mouse
[1] = tested on: c-Jun, FoxO3 phosphorylation; experiment: Western blot of BM cells from mice that succumbed to AML; settings: pI-pC-treated Mx1-Cre+ mice that died of AML despite deletion of FoxO1/3/4
Source text: BM cells recovered from mice that succumbed to control or myrAKT-expressing MLL-AF9-induced AML (refer to FIG. 10G) were subjected to western blot with antibodies that specifically recognize AKT, Tubulin or the phosphorylated forms of FoxO3 (pFoxO3^S256) c-JUN (pc-JUN^S63).
BM cells recovered from mice that succumbed MLL-AF9-induced AML (refer to FIG. 5F) that were wild type or null for FoxO1/3/4 were subjected to western blot with antibodies that specifically recognize AKT, Tubulin or the phosphorylated forms of FoxO3 (pFoxO3^S256) c-JUN (pc-JUN^S63).
Based on the observation that the JNK/c-JUN signaling pathway is activated in response to FOXO inhibition (directly or via AKT activation), whether the activation of this pathway was also initiated in vivo was examined. To this end, the phosphorylation status of c-Jun in BM cells of saline and pI-pC-treated FoxO1/3/4^floxed; Mx1-Cre+; MLL-AF9 mice (FIG. 9F) that developed overt AML was examined. Enhanced pc-Jun^Ser63 in 75% of mice that died of AML despite efficient deletion of FoxO1/3/4 (FIGS. 13A and 10C-10F) was observed. The phosphorylation status of BM cells derived from control and myrAKT-expressing leukemic mice from FIG. 10H was evaluated.

MLL-AF9 induced AML = experiment: MLL-AF9 BMT assay, WBC monitoring and survival/latency
Source text: WBC analysis of peripheral blood collected every 4-14 days post-transplant from Mx1-Cre+ saline and pI-pC-treated mice. Data is independent from Panel C (n=4).
Kaplan-Meier survival curve analysis of recipient mice Mx1-Cre− transplanted and treated as described above; n=6, p=0.6899.
Kaplan-Meier survival curve analysis of recipient mice Mx1-Cre+ transplanted and treated as described above. (p=0.0009; n=10).
After transduction, infected cells were transplanted into lethally irradiated (2 doses of 450rad gIR separated by 12 hours) F1 FVB/C57/Bl6 mice. Recipient mice developed leukemia within 70-80 days with a median survival of 77 days. Mononuclear BM cells recovered from leukemic mice were then transplanted into secondary sub-lethally irradiated recipients. Fourteen days following transplant, secondary recipients were administered intra-peritoneally three doses of saline or 12.5 mg/kg pI-pC (GE Healthcare Life Sciences) every 2 days. Mice were then monitored for external (i.e. moribund) and internal (white blood cell counts) signs of leukemia.
To distinguish whether disrupting FoxO1/3/4 expression eliminated MLL-AF9 leukemia or merely delayed the onset, FoxO1/3/4^floxed; Mx1-Cre−; MLL-AF9 and FoxO1/3/4^floxed; Mx1-Cre+; MLL-AF9 leukemic cells were separately transplanted into sub-lethally irradiated recipients. Fourteen days post-transplant, mice were administered either pI-pC or saline and subsequently monitored daily for clinical signs of leukemia. Peripheral blood from recipient mice was collected and analyzed for WBC counts every 4-14 days. Mice were euthanized upon displaying external morbidity and/or elevated WBC counts. […] However, despite efficient excision of FoxO1/3/4 (FIGS. 10C-10F) the majority of mice eventually succumbed to leukemia (FIG. 9F).

[2] = tested on: leukemia-initiating cell (LIC); experiment: Limited dilution assay of LIC function in tertiary recipients
Source text: Using the same experimental set-up described in panels G leukemia BM cells Saline (MLL-AF9; FoxO1/3/4^+/+, panel H) versus pI-pC (MLL-AF9; FoxO1/3/4^Δ/Δ, panel I) were by isolated by flow cytometry and subsequently transplanted into tertiary recipients at various cell numbers: 300 (n=6), 3,000 (n=6), 30,000 (n=4) and 300,000 (n=4). Animals were then monitored weekly and euthanized upon presentation of external (moribund) and internal (e.g. WBC) signs of AML. The LIC frequencies of each condition are located in the bottom left corner (H. LICfreq^+/+=1:20,688 and I. LICfreq^Δ/Δ=1: 269,310).
As described in FIG. 5, MLL-AF9-induced AML was generated in a FoxO1/3/4^floxed; Mx1-Cre+ genetic background that was subsequently transplanted into secondary mice. Fourteen days post-transplant, secondary recipients were administered with saline or pI-pC and monitored for the development of AML (FIG. 5). BM cells recovered from saline (Ctrl) and pI-pC treated mice that succumbed to AML were then transplanted into tertiary recipients and evaluated for the development of AML (p=0.0061; n=8).
Log-Rank (Mantel-Cox) test was used to determine p values for all Kaplan-Meier survival curve analyses. Unpaired, two-tailed student's t tests were used for all analyses comparing two experimental groups. Poisson statistics was used to determine the leukemia-initiating cell frequency in vivo in FIGS. 9H and 9I as well as in vitro in FIGS. 4E and 4F.
To test whether loss of FoxO1/3/4 also diminished LIC function, a limited dilution assay was performed for leukemia cells immediately following FoxO1/3/4 deletion. Briefly, equal numbers of leukemic BM cells were recovered from FoxO1/3/4^floxed; Mx1-Cre+; MLL-AF9 mice seven days following pI-pC or saline treatment. Recipient mice were then injected with 300, 3,000, 30,000 or 300,000 cells of each condition. Ninety days following transplantation, 100%, 75% and 17% of mice that received 300,000, 30,000 or 3,000 cells, respectively, from saline-treated FoxO1/3/4^floxed; Mx1-Cre+; MLL-AF9 succumbed to AML corresponding to a LIC frequency of 1:20,688 (FIG. 9H). In contrast, 75% of mice transplanted with 300,000 pI-pC-treated FoxO1/3/4^floxed; Mx1-Cre+; MLL-AF9 donor cells developed AML whereas 100% of mice from each other cell dose were alive at day 90.

In the case of polyinosine-polycytidyline [pI-pC], the “mice with enhanced pc-Jun^Ser63” value [1] is reported as 75%, the “latency for the onset of AML” value (MLL-AF9 induced AML; Mx1-Cre+ leukemic cells, excision of FoxO1/3/4) is reported as “significantly longer latency” and the WBC counts (MLL-AF9 induced AML; Mx1-Cre+ mice, blood every 4-14 days) is reported as “lower WBC counts than saline-treated controls”. For the same substance, the “mice disease-free up to 5 months post-excision” value (MLL-AF9 induced AML; Mx1-Cre+, n=10) was 20%, the “increase in median survival” value ([2]; 300,000 donor cells, pI-pC vs saline-treated) was roughly 2 fold and the median survival ([2]; 300,000 pI-pC-treated donor cells, n=4) was 82 days. For the same substance, the “mice that developed AML” value ([2]; 300,000 pI-pC-treated donor cells, ninety days following transplantation) was 75%, the “mice alive at day 90” value ([2]; each other cell dose (300, 3,000, 30,000) of pI-pC-treated donor cells) was 100% and the “LIC frequency lower than the control group” value ([2]; pI-pC vs saline) was 13 fold. For the same substance, the “latency in recipients of donor cells from mice of FIG. 9F” value ([2]; pI-pC vs saline-treated donors (FIG. 10B)) was “extended latency”.
